EP3404113A1, “METHOD FOR DETECTING PROTEIN-DNA INTERACTION” (Universidad del Pais Vasco, priority 2017, dated 2018)
“Also recorded” adds a separate entry of the source.

Legend:
FOXM1 = target: T1, FOXM1 (Homo sapiens, UniProt Q08050); assay: Nanopore single-molecule measurement of the inhibition of FOXM1 binding to its DNA target sequence
T1 construct: the FoxMIC gene (residues 222-360) was cloned in a pET-28 vector; made in house; host or cells: E. coli BL21 (DE3)
T1 sequence (Q08050 222-360): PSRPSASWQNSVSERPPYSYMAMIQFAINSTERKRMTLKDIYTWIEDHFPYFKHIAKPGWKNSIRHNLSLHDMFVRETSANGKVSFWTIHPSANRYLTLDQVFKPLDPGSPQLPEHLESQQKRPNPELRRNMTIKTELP
Method: The cis compartment (connected to the ground electrode and where samples were added) was filled with 5 mM MgCl2, 150 mM KCl, 10 mM HEPES pH 7.2 (to mimic physiological conditions) and the trans compartment with 5 mM MgCl2, 2 M KCl, 10 mM HEPES pH 7.2 (to increase the ionic current signal). 0.5 µL of previously heptamerized α-HL was added to the cis compartment and following the first insertion the chamber was manually perfused to remove excess of α-HL. Ionic currents through the αHL pore were measured using Ag/AgCl electrodes with agar bridges in 3 M KCl, and balanced before measurements. The electrodes were connected to an amplifier (Axopatch 200B, Molecular Devices), the signal was filtered at 5 kHz (lowpass Bessel filter) and acquired at 20 kHz with a digitizer (Digidata 1440A, Molecular Devices). All experiments were repeated in at least 3 different pores. Raw data was first analyzed with pClamp software (Molecular Devices) to obtain the current and dwell time of the ionic current levels, >90% of the signals longer than 10 ms were the characteristic signals described in the main text. The residual current of a level is defined as the ionic current of the level divided by the ionic current of the open pore. Data analysis was carried out with Igor Pro (Wavemetrics) and molecular representations were performed using Chimera (UCSF).^47 The confidence interval of the kinetic rates were estimated using: kupp = k⋅(1+z/√n) [formula] klow = k⋅(1−z/√n) [formula] Transcription factors are frequently considered as ideal targets for cancer therapy, yet finding molecules capable of specifically inhibiting their interactions with DNA is challenging. Motivated by the high sensitivity of our measurements, we aimed to explore the capabilities of the nanopore to detect small molecule activity. We choose the DNA binding domain of Forkhead box protein M1 (FOXM1), which is overexpressed in many cancers and for which a molecule that inhibits binding to its target sequence has been reported, FDI-6^37 (Figure 3). When a DNA hairpin containing the binding sequence^38 and a 5' overhang is subjected to nanopore analysis we observe the characteristic ionic current signal reflecting the threading, unzipping and translocation of the DNA (Figure 3a). […] In agreement with previous reports,^29 we attribute the differences in unzipping kinetics to the differences in the first base pair to be unzipped. The RepE oligonucleotide begins with G-C while that of FOXM1 begins with A-T. Following the addition of FOXM1 protein, events showing an additional step are detected (Figure 3b), which correspond to the threading of protein-bound DNA molecules, detachment of the protein, unzipping and translocation of the DNA through the pore. […]

RepE-DNA = target: T2, RepE-DNA (Escherichia coli, UniProt P03856); assay: Multiplexed nanopore single-molecule measurement, RepE-DNA pair (Reporter 1); type: binding; details: 0.87 µM RepE, 0.047 µM DNA, increasing amounts of FDI-6, n = 4
T2 construct: purified from an intein vector pTXB1 containing the ORF fused with intein at the C terminus; made in house; host or cells: E. coli BL21 (DE3)

FOXM1-DNA = target: T3, FOXM1-DNA (Homo sapiens, UniProt Q08050); assay: Multiplexed nanopore single-molecule measurement, FOXM1-DNA pair (Reporter 2); type: binding; details: increasing amounts of FDI-6
T3 construct: the FoxMIC gene (residues 222-360) was cloned in a pET-28 vector; made in house; host or cells: E. coli BL21 (DE3)
T3 sequence (Q08050 222-360): T1 sequence (Q08050 222-360)

DNA-hairpin reporter = assay: Nanopore detection of a non-specific DNA interacting compound; type: binding

With `Nc1c(C(=O)Nc2ccc(F)cc2)sc2nc(-c3cccs3)cc(C(F)(F)F)c12` [FDI-6] the “mechanism of action deduced from kinetics of DNA unzipping and protein detachment” value (FOXM1) was “binds the protein (not the DNA), and that binding is competitive”, the Kd (FOXM1; affinity of the inhibitor for the protein, model: one site, reversible, binding completely prevents protein-DNA interaction, mean ± SD, n=7) was 139 ± 73 µM and the koff (FOXM1; protein detachment from DNA in the presence of FDI-6, +90 mV, 95 % CI, n = 3, compound absent 57 [96 - 18], read-out: koff,90mV,FD16) was 49 s⁻¹. The “fraction of events with a protein bound to DNA” value (FOXM1; sequential additions of FDI-6 to FOXM1-DNA solution) was “decreases”, the “effect on the interaction between RepE and its target sequence” value (RepE-DNA) was “had no effect; also recorded: in none of our measurements was the RepE-DNA pair affected” and the “fraction of events assigned to Reporter 2 with bound protein” value (FOXM1-DNA) was “decreased”.
With `COc1cccc2c1C(=O)c1c(O)c3c(c(O)c1C2=O)C[C@@](O)(C(=O)CO)C[C@@H]3O[C@H]1C[C@H](N)[C@H](O)[C@H](C)O1` [doxorubicin] the ionic current traces (DNA-hairpin reporter; 2.5 mM doxorubicin added to a solution of RepE and its DNA-hairpin reporter) was “no characteristic signal for DNA unzipping and translocation was detected” and the ionic current signal (DNA-hairpin reporter; interaction of doxorubicin with the DNA) was “radically changed the ionic current signal, giving noisy long-lived events”.
